Measured values: patent US20050123602A1, “Rifalazil formulations” (priority 2003, published 2005)

Test: Pharmacokinetics after single peroral administration of 5 mg rifalazil, fed and fasted
Format: in vivo, beagle dogs
Details: dogs, liquid-filled vs microgranulated
Protocol: Pharmacokinetic parameters were determined following a single peroral administration of 5 mg of rifalazil in healthy male beagle dogs. The rifalazil was formulated either as a liquid-filled capsule of Example 3 or as a powder-filled capsule containing microgranulated rifalazil as described in U.S. Pat. No. 5,547,683.
Both formulations were administered under fed and fasted conditions. All animals were fasted overnight prior to dosing. Animals designated as “fed” were administered a blended combination of dog chow and water in a 1:3 ratio (e.g. 250 g chow and 750 g water) via oral gavage at a dose volume of 20 mL/kg within approximately 30 minutes prior to dosing and food was provided Ad-libitum after approximately 4 hours following dosing. Animals in “fasted” groups were not fed prior to dosing and food was withheld until after approximately 4 hours after dosing. […]
Pharmacokinetic endpoints and parameters were calculated by noncompartmental analysis (NCA) using WinNonlin®.
The pharmacokinetic parameters Tmax, Cmax, AUCt, AUC∞, T1/2 (elimination), and F (bioavailability) were calculated as well as the coefficient of variation (CV) in each. […]

- effect of changes in the formulation upon elimination half-life (T1/2): no effect
SMILES: CO[C@H]1/C=C/O[C@@]2(C)Oc3c(C)c(O)c4c(=O)c(c5oc6cc(N7CCN(CC(C)C)CC7)cc(O)c6nc-5c4c3C2=O)NC(=O)/C(C)=C\C=C\[C@H](C)[C@H](O)[C@@H](C)[C@@H](O)[C@@H](C)[C@H](OC(C)=O)[C@@H]1C [rifalazil, Rifalazil]
